The test system of the experiment is primary cultured cells of mouse fetus-derived dorsal root ganglia (DRGs). Nature of the experiment: Suppression of axonal degeneration after axotomy in DRG explant culture. As to conditions: Mus musculus; minimum concentration at which axonal degeneration was suppressed (DI 0.3 or less); 24 hours after axotomy; read-out: Evaluation on protection against degeneration. Format: cell-based. The procedure, abridged: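 Embryonic ICR mouse DRG explants were cultured 7–8 days in nicotinamide-free neuronal medium with NGF, then axotomized by removing the cell bodies. Compound (100 pM–10 µM final, 0.1% DMSO) was added within 30 min, and neurites were imaged 24 h later. The result is the lowest concentration giving degeneration index ≤0.3.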
With `O=C(NCCCOCCOCCCNC(=O)c1cccnc1)c1cccnc1` [compound 35], the minimal effective concentration is not above 0.01 µM.

In the case of `O=C(NCc1ccc(NC(=O)c2ccccc2)nc1)c1cccnc1` [compound 105], the minimal effective concentration is not above 0.01 µM.

Consider `CC(C)(C)C(=O)Nc1ccc(CNC(=O)c2cccnc2)cn1` [compound 76], for which the minimal effective concentration was not above 0.01 µM.

These data come from patent EP4793271A1, “NEUROPROTECTIVE AGENT” (National Center of Neurology and Psychiatry, priority 2023, dated 2025).
